The target in assay [1] is T1, KRas^G12C (Homo sapiens, UniProt P01116, G12C).
T1 construct: Biotinylated KRas (corresponding to amino acids 1-169, produced at Accelegan Inc.); biotin (biotinylated); purchased Accelegan Inc
The assay is described as follows: KRas binding assay (TR-FRET tracer displacement), KRas G12C. The conditions noted are these: TR-FRET tracer displacement, KRas G12C. For orientation: Time-resolved FRET reads energy transfer from a long-lived donor to a nearby acceptor.

For assay [2], the target named is T2, KRas^G12D (Homo sapiens, UniProt P01116, G12D).
T2 construct: Biotinylated KRas (corresponding to amino acids 1-169, produced at Accelegan Inc.); biotin (biotinylated); purchased Accelegan Inc
The assay is described as follows: KRas binding assay (TR-FRET tracer displacement), KRas G12D.

In assay [3] the test system is KRas-mediated phosphorylation of ERK in H727 cells. The assay is described as follows: Inhibition of KRas-mediated phosphorylation of ERK (Cisbio HTRF pERK), H727 cells. The class given is cell-based. Conditions: Homo sapiens; for inhibition at 0.1 µM: NCI-H727, 3 h, single point, 100 nM compound, 3 hrs, H727 cells; for IC50: NCI-H727, H727 cells, HTRF pERK. The method in brief:
(§1)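 Each compound was tested at 10 concentrations, threefold apart with 10 uM the highest, for 3 hrs on 6,000 seeded cells; final DMSO was 0.8% and Trametinib (0.2 uM) served as Min control. Lysed cells were analysed for pERK by HTRF.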

Assay [4] has as its system KRas-mediated phosphorylation of ERK in H460 cells. The assay is described as follows: Inhibition of KRas-mediated phosphorylation of ERK (Cisbio HTRF pERK), H460 cells. The class given is cell-based. Conditions: Homo sapiens, NCI-H460, 3 h, single point, 100 nM compound, 3 hrs. Summed up: as §1
Assay [5] concerns the target T3, KRas^G12V (Homo sapiens, UniProt P01116, G12V).
T3 construct: Biotinylated KRas (corresponding to amino acids 1-169, produced at Accelegan Inc.); biotin (biotinylated); purchased Accelegan Inc
The assay is described as follows: KRas binding assay (TR-FRET tracer displacement), KRas G12V.

For assay [6], the target named is T4, KRas^G13D (Homo sapiens, UniProt P01116, G13D).
T4 construct: Biotinylated KRas (corresponding to amino acids 1-169, produced at Accelegan Inc.); biotin (biotinylated); purchased Accelegan Inc
The assay is described as follows: KRas binding assay (TR-FRET tracer displacement), KRas G13D. Conditions: TR-FRET tracer displacement, KRas G13D.

Assay [7] has as its target T5, KRas^Q61H (Homo sapiens, UniProt P01116, Q61H).
T5 construct: Biotinylated KRas (corresponding to amino acids 1-169, produced at Accelegan Inc.); biotin (biotinylated); purchased Accelegan Inc
The assay is described as follows: KRas binding assay (TR-FRET tracer displacement), KRas Q61H. Conditions: TR-FRET tracer displacement, KRas Q61H.

Assay [8] concerns KRas-mediated phosphorylation of ERK in HCT116 cells. The assay is described as follows: Inhibition of KRas-mediated phosphorylation of ERK (Cisbio HTRF pERK), HCT116 cells. The class given is cell-based. The conditions noted are these: Homo sapiens, HCT-116, 3 h, single point, 100 nM compound, 3 hrs. The method in brief: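 HTRF readout of phospho-ERK in cell lysates after 3 hrs of compound exposure. Dosing: 10 uM top, 3-fold steps, 10 doses, final DMSO 0.8%. Min control: 0.2 uM Trametinib. Lysis ran 40 mins at 4° C, and antibody detection 2 hrs at room temperature.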

In assay [9] the target is T6, KRas^WT (Homo sapiens, UniProt P01116).
T6 construct: Biotinylated KRas (corresponding to amino acids 1-169, produced at Accelegan Inc.); biotin (biotinylated); purchased Accelegan Inc
The assay is described as follows: KRas binding assay (TR-FRET tracer displacement), KRas WT. Conditions: TR-FRET tracer displacement, KRas WT.

The test system of assay [10] is KRas-mediated phosphorylation of ERK in AsPC-1 cells. The assay is described as follows: Inhibition of KRas-mediated phosphorylation of ERK (Cisbio HTRF pERK), AsPC-1 cells. Conditions: Homo sapiens; for inhibition at 0.1 µM: ASPC1, 3 h, single point, 100 nM compound, 3 hrs, AsPC-1 cells; for IC50: ASPC1, AsPC-1 cells, HTRF pERK. The class given is cell-based. Summed up:
as §1

Assay [11] concerns the target T7, KRas^G12A (Homo sapiens, UniProt P01116, G12A).
T7 construct: Biotinylated KRas (corresponding to amino acids 1-169, produced at Accelegan Inc.); biotin (biotinylated); purchased Accelegan Inc
The assay is described as follows: KRas binding assay (TR-FRET tracer displacement), KRas G12A. Conditions: TR-FRET tracer displacement, KRas G12A.

For assay [12], the target named is T8, KRas^G12S (Homo sapiens, UniProt P01116, G12S).
T8 construct: Biotinylated KRas (corresponding to amino acids 1-169, produced at Accelegan Inc.); biotin (biotinylated); purchased Accelegan Inc
The assay is described as follows: KRas binding assay (TR-FRET tracer displacement), KRas G12S. The conditions noted are these: TR-FRET tracer displacement, KRas G12S.

The target in assay [13] is T9, KRas^G12R (Homo sapiens, UniProt P01116, G12R).
T9 construct: Biotinylated KRas (corresponding to amino acids 1-169, produced at Accelegan Inc.); biotin (biotinylated); purchased Accelegan Inc
The assay is described as follows: KRas binding assay (TR-FRET tracer displacement), KRas G12R.

T3 sequence (P01116 1-169 isoform P01116-2 G12V): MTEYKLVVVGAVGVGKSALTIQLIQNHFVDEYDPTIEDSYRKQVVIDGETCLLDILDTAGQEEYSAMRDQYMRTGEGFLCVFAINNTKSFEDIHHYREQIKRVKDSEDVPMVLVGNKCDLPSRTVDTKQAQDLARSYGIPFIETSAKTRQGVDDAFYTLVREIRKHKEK
T4 sequence (P01116 1-169 isoform P01116-2 G13D): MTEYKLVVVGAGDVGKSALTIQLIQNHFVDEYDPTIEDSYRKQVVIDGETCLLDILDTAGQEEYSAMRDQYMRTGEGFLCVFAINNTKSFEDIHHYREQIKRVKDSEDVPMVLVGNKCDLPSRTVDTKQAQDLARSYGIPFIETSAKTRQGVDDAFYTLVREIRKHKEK
T7 sequence (P01116 1-169 isoform P01116-2 G12A): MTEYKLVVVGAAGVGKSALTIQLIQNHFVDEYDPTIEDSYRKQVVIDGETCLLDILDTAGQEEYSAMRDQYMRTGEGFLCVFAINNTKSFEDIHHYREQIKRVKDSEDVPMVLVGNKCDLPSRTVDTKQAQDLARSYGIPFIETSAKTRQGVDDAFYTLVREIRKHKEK
T6 sequence (P01116 1-169 isoform P01116-2): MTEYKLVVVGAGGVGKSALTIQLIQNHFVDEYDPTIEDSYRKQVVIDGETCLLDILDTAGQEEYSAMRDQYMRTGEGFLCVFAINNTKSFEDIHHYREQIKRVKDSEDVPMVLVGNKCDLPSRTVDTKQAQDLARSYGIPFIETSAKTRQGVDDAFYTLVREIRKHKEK
T5 sequence (P01116 1-169 isoform P01116-2 Q61H): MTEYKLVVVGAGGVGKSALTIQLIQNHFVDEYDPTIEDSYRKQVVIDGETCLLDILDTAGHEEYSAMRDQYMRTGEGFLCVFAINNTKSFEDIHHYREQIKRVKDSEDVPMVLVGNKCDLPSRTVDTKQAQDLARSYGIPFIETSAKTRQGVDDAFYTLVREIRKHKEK
T9 sequence (P01116 1-169 isoform P01116-2 G12R): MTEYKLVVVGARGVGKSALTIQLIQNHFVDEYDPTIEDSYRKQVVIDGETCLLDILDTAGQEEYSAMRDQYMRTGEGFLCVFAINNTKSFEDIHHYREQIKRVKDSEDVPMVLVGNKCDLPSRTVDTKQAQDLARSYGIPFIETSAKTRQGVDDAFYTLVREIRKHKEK
T1 sequence (P01116 1-169 isoform P01116-2 G12C): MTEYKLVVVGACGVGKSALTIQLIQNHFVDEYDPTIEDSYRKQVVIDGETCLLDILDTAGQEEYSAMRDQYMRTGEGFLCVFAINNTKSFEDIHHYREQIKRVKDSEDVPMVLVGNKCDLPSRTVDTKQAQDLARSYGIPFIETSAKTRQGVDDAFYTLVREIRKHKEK
T2 sequence (P01116 1-169 isoform P01116-2 G12D): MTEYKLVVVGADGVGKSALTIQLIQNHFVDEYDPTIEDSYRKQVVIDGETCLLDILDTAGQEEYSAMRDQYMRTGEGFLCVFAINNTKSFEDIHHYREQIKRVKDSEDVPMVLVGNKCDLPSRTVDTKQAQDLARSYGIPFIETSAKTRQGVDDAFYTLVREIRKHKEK
T8 sequence (P01116 1-169 isoform P01116-2 G12S): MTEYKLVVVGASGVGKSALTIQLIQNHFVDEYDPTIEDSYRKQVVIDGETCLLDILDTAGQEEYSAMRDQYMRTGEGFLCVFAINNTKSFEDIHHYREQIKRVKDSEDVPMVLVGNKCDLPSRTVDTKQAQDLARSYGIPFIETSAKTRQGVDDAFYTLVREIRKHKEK

The IC50 is the concentration needed to halve the response being measured. A low value points to greater potency in that assay. The inhibition is the drop in the measured response relative to a control, in per cent. As to `Cc1cc2c(c(-c3ncc4c(N5CCC[C@@](C)(O)C5)nc(OCC56CCCN5CCC6)nc4c3F)c1C)CC(=O)N2` [Example 784, 4-(8-fluoro-2-((hexahydro-1H-pyrrolizin-7a-yl)methoxy)-4-((R)-3-hydroxy-3-methylpiperidin-1-yl)pyrido[4,3-d]pyrimidin-7-yl)-5,6-dimethylindolin-2-one], the IC50 in [1] was found to be 480 nM; in assay [2], 1320 nM; in assay [5] it was 1920 nM; in [6], 471 nM; in assay [7], 746 nM; in assay [9], 665 nM. The IC50 turned out to be 717 nM in assay [11], 475 nM in assay [12] and 4490 nM in assay [13]. Further, the inhibition at 0.1 µM in assay [3] stood at 0%; in assay [4], 9%; in assay [8], 9%; in assay [10], 19%.

In the case of `Cc1cc2[nH]nnc2c(-c2ncc3c(N4CCC[C@@](C)(O)C4)nc(OCC45CCCN4CCC5)nc3c2F)c1C` [Example 734, (3R)-1-(7-(5,6-dimethyl-1H-benzo[d][1,2,3]triazol-4-yl)-8-fluoro-2-((hexahydro-1H-pyrrolizin-7a-yl)methoxy)pyrido[4,3-d]pyrimidin-4-yl)-3-methylpiperidin-3-ol], the IC50 is 10600 nM in assay [1]; 8110 nM in [2]; 11600 nM in [5]; 10500 nM in assay [6]; 11400 nM in assay [7]; 10500 nM in assay [9]. Besides, the results for the IC50 in [11], in [12] and in assay [13] were 10300 nM, 11600 nM and 20600 nM, respectively. Also, the inhibition at 0.1 µM in assay [3] was -3%; in assay [4] it was -3%; in [8] it was -13%; in assay [10], -18%.

With `Cc1cc2[nH]nnc2c(-c2ncc3c(N4CCCC5(CNS(=O)(=O)N5)C4)nc(OCC45CCCN4CCC5)nc3c2F)c1C` (stereo not shown) [Example 855, 7-(7-(5,6-dimethyl-1H-benzo[d][1,2,3]triazol-4-yl)-8-fluoro-2-((tetrahydro-1H-pyrrolizin-7a(5H)-yl)methoxy)pyrido[4,3-d]pyrimidin-4-yl)-2-thia-1,3,7-triazaspiro[4.5]decane 2,2-dioxide], the IC50 in assay [1] is 25 nM; in assay [2], 10 nM; in assay [3], over 10000 nM; in assay [5], 16 nM; in assay [6], 12 nM; in [7] it was 23 nM. Moreover, the IC50 in assay [9] is 26 nM; in assay [10], over 10000 nM; in [11], 21 nM; in assay [12], 18 nM; in [13], 31 nM.

On to `O=C1NC(=O)C2(CCCN(c3nc(OCC45CCCN4CCC5)nc4c(F)c(-c5c6ccccc6cc6[nH]ncc56)ncc34)C2)N1` (stereo not shown) [Example 755, 7-(7-(1H-benzo[f]indazol-4-yl)-8-fluoro-2-((hexahydro-1H-pyrrolizin-7a-yl)methoxy)pyrido[4,3-d]pyrimidin-4-yl)-1,3,7-triazaspiro[4.5]decane-2,4-dione], for which the IC50 in [1] is 11 nM; in [2] it was 16 nM; in assay [3], over 10000 nM; in [5], 11 nM; in assay [6] it was 11 nM; in assay [7], 9 nM. For the same molecule, the IC50 in assay [9] is 13 nM; in [10], over 10000 nM; in [11], 14 nM; in [12] it was 11 nM; in [13], 9 nM.

As for `O=C1NC(=O)[C@]2(CCCN(c3nc(OCC45CCCN4CCC5)nc4c(F)c(-c5c(C6CC6)c(Cl)cc6[nH]ncc56)ncc34)C2)N1` [Example 779, (5R)-7-(7-(6-chloro-5-cyclopropyl-1H-indazol-4-yl)-8-fluoro-2-((hexahydro-1H-pyrrolizin-7a-yl)methoxy)pyrido[4,3-d]pyrimidin-4-yl)-1,3,7-triazaspiro[4.5]decane-2,4-dione], the IC50 in assay [1] is under 2 nM; in assay [2], 2 nM; in [3], 9390 nM; in assay [5], under 2 nM; in assay [6], under 2 nM; in [7], under 2 nM. The IC50 in [9] is under 2 nM; in assay [10], over 10000 nM; in assay [11], under 2 nM; in assay [12], under 2 nM; in [13], 2 nM.

On to `CCc1cccc2cc3[nH]ncc3c(-c3ncc4c(N5CCCC6(CC(=O)N6)C5)nc(OC[C@@]56CCCN5C[C@H](F)C6)nc4c3F)c12` (stereo partly drawn) [Example 771, 6-(7-(5-ethyl-1H-benzo[f]indazol-4-yl)-8-fluoro-2-(((2R,7aS)-2-fluorohexahydro-1H-pyrrolizin-7a-yl)methoxy)pyrido[4,3-d]pyrimidin-4-yl)-1,6-diazaspiro[3.5]nonan-2-one], for which the IC50 in assay [1] stood at 8 nM; in [2], 5 nM; in [3], 897 nM; in [5] it was 4 nM; in assay [6], 11 nM; in assay [7], 7 nM. Also, the IC50 is 12 nM in assay [9]; 1370 nM in [10]; 10 nM in assay [11]; 9 nM in [12]; 4 nM in assay [13].

`Cc1cc2[nH]ncc2c(-c2ncc3c(N4CCCC5(CC(O)C5)C4)nc(OCC45CCCN4CCC5)nc3c2F)c1C` (stereo not shown) [Example 727, 6-(7-(5,6-dimethyl-1H-indazol-4-yl)-8-fluoro-2-((hexahydro-1H-pyrrolizin-7a-yl)methoxy)pyrido[4,3-d]pyrimidin-4-yl)-6-azaspiro[3.5]nonan-2-ol]: the IC50 in [1] is 421 nM; in assay [2] it was 634 nM; in assay [3], over 10000 nM; in [5], 333 nM; in [6], 888 nM; in assay [7], 947 nM. Further, the 50% inhibitory concentration (IC50) is 657 nM in assay [9]; over 10000 nM in assay [10]; 516 nM in [11]; 540 nM in assay [12]; 520 nM in [13].

On to `C[C@@]1(O)CCCN(c2nc(OCC34CCCN3CCC4)nc3c(F)c(-c4ccc(F)c5sc(N)nc45)ncc23)C1` [Example 735, (R)-1-(7-(2-amino-7-fluorobenzo[d]thiazol-4-yl)-8-fluoro-2-((hexahydro-1H-pyrrolizin-7a-yl)methoxy)pyrido[4,3-d]pyrimidin-4-yl)-3-methylpiperidin-3-ol], for which the IC50 stood at 3130 nM in [1]; 1980 nM in assay [2]; 2590 nM in assay [5]; 2140 nM in assay [6]; 3530 nM in [7]; 1840 nM in assay [9]. Also, the IC50 in [11] amounted to 2680 nM; in assay [12], 2770 nM; in assay [13] it was 3960 nM. In addition, the inhibition at 0.1 µM in assay [3] is -31%; in assay [4] it was 5%; in [8], -2%; in assay [10], 14%.

For the origin of these results see patent US20260015350A1, “AZAQUINAZOLINE PAN-KRAS INHIBITORS” (Mirati Therapeutics, Inc., priority 2022, published 2026).
